Measured values taken from ChEMBL document CHEMBL5532720, “A Potent Solution for Tumor Growth and Angiogenesis Suppression via an ELR+CXCL-CXCR1/2 Pathway Inhibitor” (ACS Med Chem Lett, 2024).
The source made the active and inactive calls. No cut-off for these calls is given here.

Assays:
[1] = Stability in mouse microsomes assessed as half-life; type: ADME, Microsome
[2] = Half-life in NOD SCID mouse at 50 mg/kg, po; type: ADME, organism-based; settings: in vivo
[3] = biological target: Serine/threonine-protein kinase TAO1 (Homo sapiens) (UniProt Q7L7X3); test: Inhibition of TAOK1 (unknown origin) at 10 uM in presence of ATP at Km concentration
Sequence of Serine/threonine-protein kinase TAO1 (Homo sapiens) (Q7L7X3 whole entry): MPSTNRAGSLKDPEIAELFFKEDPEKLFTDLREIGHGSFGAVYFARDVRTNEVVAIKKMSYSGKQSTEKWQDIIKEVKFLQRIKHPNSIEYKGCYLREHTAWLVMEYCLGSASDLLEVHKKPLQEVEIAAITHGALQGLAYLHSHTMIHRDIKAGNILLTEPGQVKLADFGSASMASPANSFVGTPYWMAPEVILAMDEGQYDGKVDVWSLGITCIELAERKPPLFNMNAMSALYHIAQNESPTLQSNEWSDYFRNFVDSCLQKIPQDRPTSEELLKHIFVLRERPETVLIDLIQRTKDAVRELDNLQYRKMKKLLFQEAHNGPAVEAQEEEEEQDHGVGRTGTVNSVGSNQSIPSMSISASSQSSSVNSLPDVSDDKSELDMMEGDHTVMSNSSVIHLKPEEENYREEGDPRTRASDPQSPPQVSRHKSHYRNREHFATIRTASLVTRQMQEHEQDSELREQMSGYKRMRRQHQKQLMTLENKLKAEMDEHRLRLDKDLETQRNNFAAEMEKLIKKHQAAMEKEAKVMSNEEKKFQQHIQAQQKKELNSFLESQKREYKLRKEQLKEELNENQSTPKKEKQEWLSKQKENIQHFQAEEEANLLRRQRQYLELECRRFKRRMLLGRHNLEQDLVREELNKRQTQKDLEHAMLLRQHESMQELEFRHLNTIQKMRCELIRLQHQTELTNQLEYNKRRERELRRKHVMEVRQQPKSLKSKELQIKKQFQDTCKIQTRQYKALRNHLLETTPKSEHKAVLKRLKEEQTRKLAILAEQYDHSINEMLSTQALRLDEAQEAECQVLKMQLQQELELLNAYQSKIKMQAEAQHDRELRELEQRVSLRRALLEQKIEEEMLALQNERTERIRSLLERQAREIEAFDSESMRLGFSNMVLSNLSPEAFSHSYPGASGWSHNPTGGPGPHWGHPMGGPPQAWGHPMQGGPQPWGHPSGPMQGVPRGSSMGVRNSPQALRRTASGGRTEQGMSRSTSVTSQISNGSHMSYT

[4] = biological target: Focal adhesion kinase 1 (Homo sapiens) (UniProt Q05397); test: Inhibition of PTK2 (unknown origin) at 10 uM in presence of ATP at Km concentration
Sequence of Focal adhesion kinase 1 (Homo sapiens) (Q05397 2-1052 limits assumed): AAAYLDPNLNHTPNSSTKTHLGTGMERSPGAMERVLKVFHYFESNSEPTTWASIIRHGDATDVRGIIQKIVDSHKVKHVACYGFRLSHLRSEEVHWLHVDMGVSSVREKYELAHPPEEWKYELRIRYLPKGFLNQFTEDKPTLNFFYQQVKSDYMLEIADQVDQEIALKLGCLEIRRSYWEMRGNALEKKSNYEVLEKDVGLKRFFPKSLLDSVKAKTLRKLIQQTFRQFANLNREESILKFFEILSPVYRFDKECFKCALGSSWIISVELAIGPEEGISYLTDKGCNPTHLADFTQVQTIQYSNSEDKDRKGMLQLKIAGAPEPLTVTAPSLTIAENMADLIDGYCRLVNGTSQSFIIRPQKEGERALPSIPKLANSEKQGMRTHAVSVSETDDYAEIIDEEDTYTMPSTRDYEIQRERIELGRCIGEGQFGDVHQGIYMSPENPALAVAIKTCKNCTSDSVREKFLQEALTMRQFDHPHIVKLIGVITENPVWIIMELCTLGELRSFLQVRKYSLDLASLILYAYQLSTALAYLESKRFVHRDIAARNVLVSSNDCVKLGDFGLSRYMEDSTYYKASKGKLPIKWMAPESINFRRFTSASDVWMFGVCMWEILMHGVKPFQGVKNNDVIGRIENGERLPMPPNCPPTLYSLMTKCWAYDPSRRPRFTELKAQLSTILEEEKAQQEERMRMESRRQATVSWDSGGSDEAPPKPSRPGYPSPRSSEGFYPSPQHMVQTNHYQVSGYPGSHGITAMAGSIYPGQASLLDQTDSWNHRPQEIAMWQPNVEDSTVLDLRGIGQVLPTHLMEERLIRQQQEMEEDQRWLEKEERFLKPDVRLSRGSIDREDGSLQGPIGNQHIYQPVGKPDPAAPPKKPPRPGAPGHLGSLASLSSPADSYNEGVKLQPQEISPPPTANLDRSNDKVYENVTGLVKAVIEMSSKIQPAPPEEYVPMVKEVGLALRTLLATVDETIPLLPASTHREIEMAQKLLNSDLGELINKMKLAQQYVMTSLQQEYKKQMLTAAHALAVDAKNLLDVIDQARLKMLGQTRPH

[5] = system: A498; test: Inhibition of cell invasion in human A498 cells cultured as 3D spheroids at 5 uM measured after 7 days by light microscopic imaging analysis relative to control; type: functional; settings: A498, 168 h, time 7 day
[6] = biological target: Misshapen-like kinase 1 (Homo sapiens) (UniProt Q8N4C8); test: Inhibition of MINK1 (unknown origin) at 10 uM in presence of ATP at Km concentration
Sequence of Misshapen-like kinase 1 (Homo sapiens) (Q8N4C8 whole entry, looked up): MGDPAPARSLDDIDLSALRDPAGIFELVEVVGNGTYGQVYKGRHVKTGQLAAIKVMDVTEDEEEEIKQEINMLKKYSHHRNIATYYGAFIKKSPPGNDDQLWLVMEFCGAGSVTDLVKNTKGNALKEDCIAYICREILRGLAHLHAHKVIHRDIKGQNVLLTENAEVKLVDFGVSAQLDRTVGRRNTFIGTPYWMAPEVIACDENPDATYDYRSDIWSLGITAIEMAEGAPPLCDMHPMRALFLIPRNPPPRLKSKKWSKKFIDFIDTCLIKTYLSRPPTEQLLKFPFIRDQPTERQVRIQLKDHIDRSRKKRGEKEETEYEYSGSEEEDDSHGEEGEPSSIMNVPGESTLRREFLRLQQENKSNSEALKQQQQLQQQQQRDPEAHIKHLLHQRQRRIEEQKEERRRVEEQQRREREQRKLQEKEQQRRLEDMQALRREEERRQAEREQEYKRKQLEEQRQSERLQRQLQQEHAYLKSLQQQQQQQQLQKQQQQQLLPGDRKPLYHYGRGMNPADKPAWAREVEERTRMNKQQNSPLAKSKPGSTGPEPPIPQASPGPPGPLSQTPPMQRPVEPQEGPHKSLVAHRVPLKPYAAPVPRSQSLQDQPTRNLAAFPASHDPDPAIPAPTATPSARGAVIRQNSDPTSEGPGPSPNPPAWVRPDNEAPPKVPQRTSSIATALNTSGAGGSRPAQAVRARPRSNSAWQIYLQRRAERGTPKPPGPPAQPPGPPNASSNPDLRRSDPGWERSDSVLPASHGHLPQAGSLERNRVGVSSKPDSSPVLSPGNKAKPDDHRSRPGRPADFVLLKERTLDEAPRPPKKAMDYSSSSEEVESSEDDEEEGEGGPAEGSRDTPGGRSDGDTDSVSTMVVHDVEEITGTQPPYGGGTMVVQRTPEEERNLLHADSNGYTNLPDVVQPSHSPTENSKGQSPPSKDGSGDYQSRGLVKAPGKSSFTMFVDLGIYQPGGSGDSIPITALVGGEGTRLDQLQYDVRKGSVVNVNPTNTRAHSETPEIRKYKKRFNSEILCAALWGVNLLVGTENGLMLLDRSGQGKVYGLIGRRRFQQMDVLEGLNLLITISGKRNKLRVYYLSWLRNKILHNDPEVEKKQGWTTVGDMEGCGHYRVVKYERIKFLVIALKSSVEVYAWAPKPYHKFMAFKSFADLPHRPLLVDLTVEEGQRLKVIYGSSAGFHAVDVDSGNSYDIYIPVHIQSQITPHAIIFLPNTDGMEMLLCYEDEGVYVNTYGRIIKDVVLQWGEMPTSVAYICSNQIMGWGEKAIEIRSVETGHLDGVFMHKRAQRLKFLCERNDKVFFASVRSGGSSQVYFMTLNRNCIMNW

[7] = system: A498; test: Inhibition of CXCL1 secretion in human A498 cells at 1 to 2.5 uM incubated for 48 hrs by ELISA; type: functional, cell-based; settings: dose 1-2.5 µM
[8] = biological target: Inhibitor of nuclear factor kappa-B kinase subunit beta (Homo sapiens) (UniProt O14920); test: Inhibition of IKBKB (unknown origin) at 10 uM in presence of ATP at Km concentration
Sequence of Inhibitor of nuclear factor kappa-B kinase subunit beta (Homo sapiens) (O14920 whole entry): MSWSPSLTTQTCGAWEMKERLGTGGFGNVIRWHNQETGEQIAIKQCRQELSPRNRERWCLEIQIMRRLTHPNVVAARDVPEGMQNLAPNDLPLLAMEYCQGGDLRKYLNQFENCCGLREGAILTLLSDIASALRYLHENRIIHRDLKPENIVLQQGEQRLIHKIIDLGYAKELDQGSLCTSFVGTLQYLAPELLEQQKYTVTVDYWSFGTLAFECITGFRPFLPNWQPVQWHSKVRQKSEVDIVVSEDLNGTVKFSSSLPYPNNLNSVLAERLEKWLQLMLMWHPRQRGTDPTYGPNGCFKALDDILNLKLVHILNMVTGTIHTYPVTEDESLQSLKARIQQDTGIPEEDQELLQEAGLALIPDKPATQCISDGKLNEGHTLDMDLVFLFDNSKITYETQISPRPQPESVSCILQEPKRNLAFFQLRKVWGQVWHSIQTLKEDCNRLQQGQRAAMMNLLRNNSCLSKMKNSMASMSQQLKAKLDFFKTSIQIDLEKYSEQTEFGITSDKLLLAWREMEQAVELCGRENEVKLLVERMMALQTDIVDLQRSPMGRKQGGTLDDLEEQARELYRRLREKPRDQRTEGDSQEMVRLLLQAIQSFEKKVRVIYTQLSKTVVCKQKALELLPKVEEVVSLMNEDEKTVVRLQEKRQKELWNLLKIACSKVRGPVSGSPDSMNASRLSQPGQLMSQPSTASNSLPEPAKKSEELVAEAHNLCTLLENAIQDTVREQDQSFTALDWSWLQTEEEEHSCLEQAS

Structure (SMILES): O=C(Nc1cc(Cl)cc(Cl)c1)Nc1nc2ccc([N+](=O)[O-])cc2s1
- half-life [1]: > 1 h
- half-life [2]: 1.8 h
- inhibition [3]: inactive
- inhibition [4]: inactive
- inhibition at 5 µM [5]: > 75%
- inhibition [6]: inactive
- inhibition [7]: Active
- inhibition [8]: inactive
